According to EP1245247A1, “Biocidal locks” (Biolink Corporation, priority 2001, dated 2002):

Assays:
[1] = test system: Vancomycin-Intermediate Susceptibility Staphylococcus Aureus (VISA) and Methicillin-Resistant Staphylococcus Aureus (MRSA); conditions: range pH 7.0 to pH 5.0; cited from earlier work
[2] = mice; cited from earlier work
blood = assay: Clotting of pig blood collected into containers holding taurolidine solution (Example 1); conditions: pig blood filled up to the 30 mL level; inspected after 30 minutes
Procedure: A 0.5% solution of taurolidine in Ringer-lactate solution (Thomae, Biberach, Germany) was introduced into each of four polyethylene bottles having a 30 mL volume. Filling volumes were 5, 10, and 15 mL. One bottle was filled with 5 mL of the taurolidine solution and 2 mL ACD-A (Fresenius, Bad Homburg, Germany) solution. ACD-A solution is used for the conservation of whole blood and contains per liter: 22.0 grams of sodium citrate dihydrate, 7.3 grams of citric acid and 34.5 grams of glucose monohydrate.
Blood was collected at a slaughter house from a female pig directly from the slaughter wound into the containers that were then filled up to the 30 mL level. The containers were capped and gently moved to mix blood with the solution. The containers were inspected after 30 minutes. Blood in the containers containing only taurolidine was clotted, but the blood in the container containing the mixture of taurolidine and ACD-A was not clotted.

E. coli = conditions: intravenous 0.2 mL of a 20% solution in sterile 5% polyvinyl pyrrolidone; intraperitoneal E. coli; cited from earlier work
B. fragilis = conditions: intravenous 0.2 mL of a 20% solution in sterile 5% polyvinyl pyrrolidone; intraperitoneal B. fragilis; cited from earlier work
[3] = mouse, in vivo; cited from earlier work
S. epidermis = conditions: cited from earlier work

O=S1(=O)CCN(CN2CCS(=O)(=O)NC2)CN1 [taurolidine, bis-(1,1-dioxo-perhydroxy-1,2,4-thiadiazin-4-yl)methane]
dependence of activity on pH [1]: activity increases with decreasing pH
intraperitoneal LD50 [2]: ~1500 mg/kg
Blood clotting in the containers (blood): clotted
mortality rate (E. coli): very significantly reduce the mortality rate
mortality rate (B. fragilis): very significantly reduce the mortality rate
teratogenicity [3]: non-teratogenic

O=C([O-])CN(CCN(CC(=O)[O-])CC(=O)O)CC(=O)O.[Na+].[Na+] [disodium EDTA]
bactericidal concentration (S. epidermis; initial inoculum of 10^3 CFU of staphylococci per mL, in 24 hours): 20 mg/mL

CN[C@H](CC(C)C)C(=O)N[C@H]1C(=O)N[C@@H](CC(N)=O)C(=O)N[C@H]2C(=O)N[C@H]3C(=O)N[C@H](C(=O)N[C@H](C(=O)O)c4cc(O)cc(O)c4-c4cc3ccc4O)[C@H](O)c3ccc(c(Cl)c3)Oc3cc2cc(c3O[C@@H]2O[C@H](CO)[C@@H](O)[C@H](O)[C@H]2O[C@H]2C[C@](C)(N)[C@H](O)[C@H](C)O2)Oc2ccc(cc2Cl)[C@H]1O [Vancomycin]
bactericidal dose (S. epidermis; initial inocula of 10^3 CFU/mL): 6.7 µg/mL
